Test results from patent publication US9987293B2, “Method for treating chronic lymphocytic leukemia” (BIONOMICS LIMITED, priority 2014, dated 2018).

Columns and labels:
CLL cells on L4.5 stroma = test: Apoptosis of CLL cells co-incubated on CD154+ L4.5 stroma; type: cell-based, human; details: for sensitivity of stroma co-incubated CLL cells: co-incubation on stroma for 24 h
Method: (§1) CLL cells were obtained from consented patients at the Norris Cotton Cancer Center. Cells were purified by centrifugation in Ficoll-Paque PLUS from 10 ml, of blood. Lymphocytes were plated in RPMI 1640 plus 10% serum at 1×10^6 cells/mL after three washes in PBS+2 mmol/L EDTA. Cells were either incubated immediately with reagents or after 24 h incubation with confluent layers of CD154+ stromal cells (L 4.5) at a ratio of 5:1.
(§2) Cells were incubated for 10 min with 2 μg/mL. Hoechst 33342 at 37° C. and visualized with a fluorescent microscope. At least 200 cells were scored for each sample. The percentage of cells with condensed chromatin was recorded.
The experiments above have shown that CLL cells are usually very sensitive to EX2. However, these cells were isolated from peripheral blood, and the real problem to curing CLL is to be able to kill cells that reside in the lymph node or […] marrow niche. To mimic this niche, we have used L4.5 cells that express CD154. […] However, when ABT-199 and EX2 were combined, marked apoptosis was again observed. For example, 100 nM ABT-199 alone induced about 10% apoptosis, whereas when combined with 1 μM EX2, >60% apoptosis was observed within 6 h. The combination of 1 μM EX2 and 1 μM ABT-199 induced about 80% apoptosis. This patient's cells appeared to be more resistant than those summarized in FIG. 2 which may therefore understate the impact of this combination. In cells from another patient that were more sensitive to EX2 alone we observed greater sensitization to ABT-199; these cells were not tested on stroma.

[1] = system: normal peripheral lymphocytes; test: Toxicity to normal peripheral lymphocytes (PARP cleavage, chromatin condensation, pJNK, Noxa); type: cell-based, human
Method: as §2
(§3) Cells were lysed in urea sample buffer [4 mol/L urea, 10% β-mercaptoethanol, 6% SDS, […] (pH 6.8), 0.01% bromphenol blue, and protease/phosphatase inhibitor cocktail] and boiled for 5 min. Proteins were subsequently separated by SDS-PAGE (10 or 15%) and transferred to polyvinylidene difluoride membrane (Millipore). Membranes were blocked with 5% nonfat milk in TBS and 0.05% Tween 20, and were probed with the appropriate primary antibody overnight. Subsequently, membranes were washed in […] and 0.05% Tween 20, and then incubated with secondary antibody conjugated to horseradish peroxidase. Proteins were visualized by enhanced chemiluminescence (Amersham). Actin was used as a loading control in Western blots.
To test the potential toxicity of EX2, normal peripheral lymphocytes were isolated from a healthy volunteer and incubated with EX2 alone or in combination with ABT-199.

CLL cells [2] = test: Immunoblot of PARP cleavage, pJNK and Noxa in CLL cells; type: cell-based, human
Method: as §1, §3
(§4) To determine whether EX2 induces apoptosis, freshly isolated CLL cells were incubated in media containing 0-1 μM EX2. Chromatin condensation was scored as a classic marker of apoptosis. Apoptosis was observed following incubation of cells with 10-100 nM EX2 and this also correlated with the cleavage of PARP (FIG. 1). Protein lysates were also assessed for both pJNK and NOXA, both of which were increased by the same concentrations of EX2.

CLL cells [3] = test: Chromatin condensation (Hoechst 33342) apoptosis in freshly isolated CLL cells; type: cell-based, human; details: 6 h
Method: as §1, §2, §4

Jeko-1 cells = test: Kinetics of apoptosis in Jeko-1 cells (Western blot); type: cell-based; details: Jeko-1 cells (FIG. 7)
Method: as §3
It was noted that in many of these experiments, PARP cleavage was incomplete at 6 h. To determine whether greater apoptosis occurred at later time points, we incubated cells for up to 24 h with EX2 (FIG. 6).

COc1cc(C(=O)c2c(C)oc3c(OP(=O)([O-])[O-])c(OC)ccc23)cc(OC)c1OC.[Na+].[Na+] [EX2, Disodium 6-methoxy-2-methyl-3-(3,4,5-trimethoxybenzoyl)benzofuran-7-yl phosphate]
apoptosis, single agent at 1 μM (CLL cells on L4.5 stroma; CLL cells co-cultured on L4.5 stroma 24 h, 1 μM): no apoptosis observed
apoptosis, combination of 1 μM EX2 and 1 μM ABT-199 (CLL cells on L4.5 stroma; CLL cells on stroma): about 80%
apoptosis, 1 μM EX2 combined with 100 nM ABT-199 (CLL cells on L4.5 stroma; CLL cells on stroma, within 6 h): > 60%
sensitivity of stroma co-incubated CLL cells (CLL cells on L4.5 stroma): markedly resistant
effect of EX2 on ABT-199-induced PARP cleavage in normal lymphocytes ([1]; EX2 combined with ABT-199): not increased
effect of EX2 on dinaciclib-induced apoptosis in normal leukocytes ([1]; EX2 combined with dinaciclib): not increased
Noxa induction in normal lymphocytes ([1]; healthy volunteer cells): no Noxa was induced
pJNK in normal lymphocytes ([1]; healthy volunteer cells): activated
PARP cleavage or chromatin condensation in normal lymphocytes ([1]; healthy volunteer cells, single agent, 6 h): no significant PARP cleavage or chromatin condensation
time to activation of JNK (CLL cells [2]; CLL cells): less than one
PARP cleavage over time (CLL cells [2]; CLL cells incubated up to 24 h (FIG. 6), by 24 h): almost total cleavage of PARP
PARP cleavage in presence of JNK inhibitor VIII (CLL cells [2]; CLL cells, 0-1 μM EX2 with JNK inhibitor VIII): completely prevented
lowest concentration at which apoptosis began to appear (CLL cells [2]; CLL cells, 6 h, FIG. 2A, pJNK and Noxa correlated): 5 nM
JNK activation and PARP cleavage after 1 h pulse treatment (CLL cells [2]; CLL cells, five hours after removing EX2, versus continuous incubation): still observed albeit slightly less
pJNK and NOXA levels (CLL cells [2]; protein lysates of CLL cells, same concentrations (10-100 nM)): increased
concentration at which apoptosis (chromatin condensation) was observed (CLL cells [3]; freshly isolated CLL cells, 0-1 μM, correlated with PARP cleavage): 10 to 100 nM
relative potency as inducer of apoptosis (CLL cells [3]; versus vinblastine and combretastatin A4, chromatin condensation and PARP cleavage): more potent inducer of apoptosis
time by which apoptosis was complete (Jeko-1 cells): up to 24 h

CCc1cnn2c(NCc3ccc[n+]([O-])c3)cc(N3CCCC[C@H]3CCO)nc12 [Dinaciclib, reference compound]
apoptosis in normal leukocytes ([1]; healthy volunteer cells, dinaciclib alone): induced some apoptosis

CC1(C)CCC(CN2CCN(c3ccc(C(=O)NS(=O)(=O)c4ccc(NCC5CCOCC5)c([N+](=O)[O-])c4)c(Oc4cnc5[nH]ccc5c4)c3)CC2)=C(c2ccc(Cl)cc2)C1 [ABT-199, reference compound]
apoptosis, 100 nM alone (CLL cells on L4.5 stroma; CLL cells on stroma, 100 nM ABT-199 alone): about 10%
sensitivity of stroma co-incubated CLL cells (CLL cells on L4.5 stroma): marked resistance
PARP cleavage in normal lymphocytes ([1]; healthy volunteer cells, ABT-199 alone): slight PARP cleavage
chromatin condensation in normal lymphocytes ([1]; healthy volunteer cells, ABT-199 with or without EX2): no chromatin condensation was observed
